Patent US5063243A, “Derivative of caffeic acid and pharmaceutical composition containing the same” (Suntory, Ltd., priority 1988, dated 1991)

Assays:
Assay type in all cases: biochemical
12-lipoxygenase [1] = biological target: T1, 12-lipoxygenase (Rattus norvegicus, UniProt F1LQ70); test: 12-lipoxygenase inhibitory activity, Method 1 (washed rat platelet, 12-HETE production); conditions: sample compound 10 μM, 3 to 5 minutes at 37° C., control without sample compound = 100%, read-out: production index of 12-HETE, Method 1 (%)
T1 construct: Washed platelet was prepared in the usual way; from tissue; host or cells: rat blood platelets (Method 1: washed platelets; Method 2: frozen, thawed and ultrasonified platelets; Method 3: platelet soluble fraction after freeze-thaw and centrifugation)
T1 sequence (F1LQ70 1-663): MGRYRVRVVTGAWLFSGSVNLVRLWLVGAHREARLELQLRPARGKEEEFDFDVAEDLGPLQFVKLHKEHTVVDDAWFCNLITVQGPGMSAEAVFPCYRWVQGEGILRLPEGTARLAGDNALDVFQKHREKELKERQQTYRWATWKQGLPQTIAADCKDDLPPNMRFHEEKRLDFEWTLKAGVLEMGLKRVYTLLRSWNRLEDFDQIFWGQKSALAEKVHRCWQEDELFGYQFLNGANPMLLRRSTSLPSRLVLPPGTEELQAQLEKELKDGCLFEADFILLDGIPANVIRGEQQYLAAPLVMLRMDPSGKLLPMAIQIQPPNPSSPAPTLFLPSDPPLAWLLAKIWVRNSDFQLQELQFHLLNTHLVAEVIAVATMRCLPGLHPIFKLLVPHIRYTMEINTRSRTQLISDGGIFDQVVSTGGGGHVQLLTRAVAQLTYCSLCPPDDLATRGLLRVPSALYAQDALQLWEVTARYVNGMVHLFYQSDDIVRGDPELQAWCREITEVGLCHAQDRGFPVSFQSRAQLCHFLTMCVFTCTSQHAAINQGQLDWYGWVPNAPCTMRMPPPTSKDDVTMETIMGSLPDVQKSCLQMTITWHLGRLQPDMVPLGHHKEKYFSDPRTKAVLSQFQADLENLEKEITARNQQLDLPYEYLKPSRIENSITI
Method: (§1) The 12-lipoxygenase inhibitory activity of the compounds of the present invention was measured by conducting the three types of pharmacological tests described below.
Citrated blood was collected from the abdominal aorta of a rat. Washed platelet was prepared in the usual way, diluted with phosphate buffer (pH=8.0) containing 0.45% NaCl and used as the enzyme solution. To the solution were added the sample compound (10 μM), [^14 C]arachidonicacid (0.2 μCi) and arachidonic acid (3 μg) and the mixture was reacted for 3 to 5 minutes at 37° C. The reaction mixture was developed by thin layer chromatography and 12-HETE was identified by a radio chromato scanner. The reduction in 12-HETE production which resulted was used as the index of 12-lipoxygenase inhibitory activity.
(§2) The production indexes of 12-HETE under the inhibitory influence of the compounds of the present invention are shown in Table 2, where the production amount of the control experiment (in the absence of the sample compound) is 100%.

12-lipoxygenase [2] = biological target: T1, 12-lipoxygenase; test: 12-lipoxygenase inhibitory activity, Method 2 (ultrasonified rat platelet enzyme solution, 12-HETE production); conditions: 5 min, sample compound 1 μM, arachidonic acid 4.3 μM, 5 minutes at 37° C., control without sample compound = 100%, read-out: production index of 12-HETE, Method 2 (%)
Method: The 12-lipoxygenase inhibitory activity of the compounds of the present invention was measured by conducting the three types of pharmacological tests described below. Citrated blood was collected from the heart of a rat and platelet-rich plasma was prepared in the usual way. The plasma was washed twice with isotonic buffer solution (A) [134 mM NaCl, 5 mM D-glucose, 1 mM EDTA, 1 mM EGTA, 15 mM Tris-HCl (pH=7.4)], frozen and stored at -80° C. It was thawed before use, ultrasonified in ice water and used as the enzyme solution. To the isotonic buffer solution (A) were added 1 mM GSH, the sample compound (final concentration: 1 μM) and the enzyme solution (300 to 500 μg protein) and the mixture was pre-incubated for 5 minutes at 37° C.; then [^14 C]arachidonic acid (0.05 μCi) (final concentration: 4.3 μM) was further added and reacted for 5 minutes. […] The reduction in 12-HETE production was used as the index of 12-lipoxygenase inhibitory activity.

12-lipoxygenase [3] = biological target: T1, 12-lipoxygenase; test: 12-lipoxygenase inhibitory activity, Method 3 (rat platelet soluble fraction, 12-HETE production); conditions: 5 min, sample compound 10 μM, arachidonic acid 40 μM, 5 minutes at 37° C., control without sample compound = 100%, read-out: production index of 12-HETE, Method 3 (%)
Method: as §1
The platelet-rich plasma obtained in the same way as described in Method 2 was washed successively with isotonic buffer solution (A) and isotonic buffer solution (B) [134 mM NaCl, 5 mM D-glucose, 0.1 mM DETA, 0.1 mM EGTA, 15 mM Tris-HCl (pH=7.4)] in that order, and suspended in a hypotonic buffer solution (C) [25 mM Tris-HCl (pH=7.7)]. The suspension was treated by a "freeze-thaw" procedure three times and centrifuged at 10500× g for 60 minutes. An aliquot of the supernatant (platelet soluble fraction) was used as the enzyme solution. To the hypotonic buffer solution (C) were added 1 mM GSH, [^14 C]arachidonic acid (0.025 μCi) (final concentration: 40 μM), the sample compound (final concentration: 10 μM) and the enzyme solution (50 μg protein) and the mixture was reacted for 5 minutes at 37° C. The index of 12-lipoxygenase inhibitory activity was obtained in the same way as described in Method 2.
as §2

SMILES	activity at 10 µM (12-lipoxygenase [1])	activity at 1 µM (12-lipoxygenase [2])	activity at 10 µM (12-lipoxygenase [3])
O=c1cc(-c2ccccc2)oc2cc(O)c(O)c(O)c12 [Baicalein, baicalein, reference compound]	27%	9.8%	22.7%
CCOC(=O)C(C#N)=Cc1ccc(O)c(O)c1 [Compound No. 1, Ethyl 2-cyano-3-(3,4-dihydroxyphenyl)-2-propenoate]	38.1%		
COC(=O)C(C#N)=Cc1ccc(O)c(O)c1 [Compound No. 5, methyl 2-cyano-3-(3,4-dihydroxyphenyl)-2-propenoate]	36%		
CC(C)OC(=O)C(C#N)=Cc1ccc(O)c(O)c1 [Compound No. 6, isopropyl 2-cyano-3-(3,4-dihydroxyphenyl)-2-propenoate]	31.4%		
N#CC(=Cc1ccc(O)c(O)c1)C(=O)OCCc1ccccc1 [Compound No. 9, Phenethyl 2-cyano-3-(3,4-dihydroxyphenyl)-2-propenoate]		10%	25.1%
N#CC(=Cc1ccc(O)c(O)c1)C(=O)OCCCc1ccccc1 [compound 10, Phenylpropyl 2-cyano-3-(3,4-dihydroxyphenyl)-2-propenoate]		12.1%	
N#CC(=Cc1ccc(O)c(O)c1)C(=O)OCCCCc1ccccc1 [compound 11, Phenylbutyl 2-cyano-3-(3,4-dihydroxyphenyl)-2-propenoate]		14.2%	
COc1ccc(CCOC(=O)C(C#N)=Cc2ccc(O)c(O)c2)cc1 [compound 13, 4-Methoxyphenethyl 2-cyano-3-(3,4-dihydroxyphenyl)-2-propenoate]			19.5%
COc1ccccc1CCOC(=O)C(C#N)=Cc1ccc(O)c(O)c1 [compound 14, 2-Methoxyphenethyl 2-cyano-3-(3,4-dihydroxyphenyl)-2-propenoate]			19.1%
N#CC(=Cc1ccc(O)c(O)c1)C(=O)OCCc1cccs1 [compound 15, 2-(2-Thienyl)ethyl 2-cyano-3-(3,4-dihydroxyphenyl)-2-propenoate]		8.7%	
N#CC(=Cc1ccc(O)c(O)c1)C(=O)OCC=Cc1ccccc1 [compound 17, 3-Phenyl-2-propenyl 2-cyano-3-(3,4-dihydroxyphenyl)-2-propenoate]		13.2%	
N#CC(=Cc1ccc(O)c(O)c1)C(=O)OCCOc1ccccc1 [compound 18, 2-Phenoxyethyl 2-cyano-3-(3,4-dihydroxyphenyl)-2-propenoate]		8.5%	
